What was measured:
[1] = Formulation attempts at 2.5 mg/mL with low concentrations of benzyl alcohol and other non-aqueous solvents; assay type: physicochemical
Method: Initial formulation experiments with low concentrations of various non-aqueous solvents were conducted targeting a bortezomib concentration of 2.5 mg/mL. Attempts to solubilize bortezomib were conducted using low concentrations of benzyl alcohol (2% v/v), or dimethyl sulfoxide (5% v/v), or a combination of these solvents. […] For these formulations, the non-aqueous solvent was added to bortezomib to dissolve it, followed by addition of water to the bortezomib-solvent mixture.

[2] = DMSO in water formulations: dissolution, physical stability, effect of pH on chemical stability; assay type: physicochemical; details: 1 mg/mL, 1% (v/v) DMSO in water, pH 5.5
Method: Various concentrations of DMSO were explored as the non-aqueous component of the formulation (2% v/v to 5% v/v in water). Bortezomib was first completely dissolved in the batch volume of DMSO to form a concentrated “premix” solution prior to making up the batch to the target concentration (2.5 mg/mL) with water. This was done to facilitate the subsequent dissolution of bortezomib in the aqueous component. The pH values of the formulations were all approximately 7.
The effect of pH on bortezomib formulations using a low concentration of DMSO in water (4.5% v/v DMSO for the 2.5 mg/mL strength and 1% v/v DMSO for the 1 mg/mL strength) was then assessed. In each case, the bortezomib was first fully dissolved in the batch quantity of DMSO to form a concentrated premix solution, which was then added to water, and the pH adjusted with sodium hydroxide and/or hydrochloric acid to pH ranging from 4 to 8.5. […] Because oxidative degradation is a significant degradation pathway for bortezomib, filled vials were overlayed with nitrogen. These batches were placed on stability at accelerated (25° C.) and long-term storage conditions (2-8° C.). […]

Question: Which “Appearance on heating the solution” value ([1]; heating up to 70° C., precipitated bortezomib not dissolved) does the source give for CC(C)C[C@H](NC(=O)[C@H](Cc1ccccc1)NC(=O)c1cnccn1)B(O)O [Bortezomib, [(1R)-3-methyl-1-[[(2S)-1-oxo-3-phenyl-2-[(pyrazinylcarbonyl)amino]propyl]amino]butyl] boronic acid] here?
Answer: a pink color formed indicating degradation of the active

Question: And the “Dissolution on addition of water to bortezomib-solvent mixture” value ([1]; target 2.5 mg/mL, benzyl alcohol (2% v/v), DMSO (5% v/v) or combination, mixing >3 hours)?
Answer: precipitated after addition of water

Question: And the “Total Impurities after 2 months at 25° C. (%)” value [2]?
Answer: 0.52%

— patent publication US20230104074A1, “BORTEZOMIB COMPOSITIONS” (MAIA Pharmaceuticals, Inc., priority 2021, published 2023)
